Source: PubChem BioAssay (NCI)
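Method: 48-hour compound exposure of cells in 96-well plates, five concentrations, linear interpolation of endpoints. GI50 is the concentration that inhibits growth by half. The concentration for full growth arrest is given as TGI.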 *1 amine or outer side, *2 acyl side, *3 side chain or, on linkers, in order; H or OH if unused. Where a SMILES comes first, the peptide text is derived from it. Bridges are numbered along the chain shown (N, C = ends). [ ]: non-standard residue; d: D form. The star is where a group is joined. Phe(3-Me) = Cc1cccc(C[C@H](N)C(=O)O)c1; NH(4-Cl-2-F-phenyl) = Fc1cc(Cl)ccc1N*; Pro(4R-Me) = C[C@H]1CN[C@H](C(=O)O)C1; Hyp = O=C(O)[C@@H]1C[C@@H](O)CN1; aThr = C[C@H](O)[C@H](N)C(=O)O; Pip = O=C(O)[C@@H]1CCCCN1; CO = O=C([*:1])[*:2]

Assays:
Assay in all cases: NCI anticancer screen, dose series, 48 h
786-0 renal = system: 786-0 renal
A498 renal = system: A498 renal
A549 NSCLC = system: A549 NSCLC
ACHN renal = system: ACHN renal
BT-549 breast = system: BT-549 breast
CAKI-1 renal = system: CAKI-1 renal
CCRF-CEM leukemia = system: CCRF-CEM leukemia
COLO 205 colon = system: COLO 205 colon
DU-145 prostate = system: DU-145 prostate
EKVX NSCLC = system: EKVX NSCLC
HCC-2998 colon = system: HCC-2998 colon
HCT-116 colon = system: HCT-116 colon
HCT-15 colon = system: HCT-15 colon
HL-60(TB) leukemia = system: HL-60(TB) leukemia
HOP-62 NSCLC = system: HOP-62 NSCLC
HOP-92 NSCLC = system: HOP-92 NSCLC
HS 578T breast = system: HS 578T breast
HT29 colon = system: HT29 colon
IGROV1 ovarian = system: IGROV1 ovarian
K-562 leukemia = system: K-562 leukemia
KM12 colon = system: KM12 colon
LOX IMVI melanoma = system: LOX IMVI melanoma
M14 melanoma = system: M14 melanoma
MALME-3M melanoma = system: MALME-3M melanoma
MCF7 breast = system: MCF7 breast
MDA-MB-231 breast = system: MDA-MB-231 breast
MDA-MB-435 = system: MDA-MB-435
MOLT-4 leukemia = system: MOLT-4 leukemia
NCI-H226 lung = system: NCI-H226 lung
NCI-H23 lung = system: NCI-H23 lung
NCI-H460 lung = system: NCI-H460 lung
NCI-H522 lung = system: NCI-H522 lung
NCI/ADR-RES ovarian = system: NCI/ADR-RES ovarian
OVCAR-3 ovarian = system: OVCAR-3 ovarian
OVCAR-4 ovarian = system: OVCAR-4 ovarian
OVCAR-5 ovarian = system: OVCAR-5 ovarian
OVCAR-8 ovarian = system: OVCAR-8 ovarian
PC-3 prostate = system: PC-3 prostate
RPMI-8226 leukemia = system: RPMI-8226 leukemia
RXF 393 renal = system: RXF 393 renal
SF-268 CNS = system: SF-268 CNS
SF-295 CNS = system: SF-295 CNS
SF-539 CNS = system: SF-539 CNS
SK-MEL-2 melanoma = system: SK-MEL-2 melanoma
SK-MEL-28 melanoma = system: SK-MEL-28 melanoma
SK-MEL-5 melanoma = system: SK-MEL-5 melanoma
SK-OV-3 ovarian = system: SK-OV-3 ovarian
SN12C renal = system: SN12C renal
SNB-19 CNS = system: SNB-19 CNS
SNB-75 CNS = system: SNB-75 CNS
SR leukemia = system: SR leukemia
SW-620 colon = system: SW-620 colon
T-47D breast = system: T-47D breast
TK-10 renal = system: TK-10 renal
U251 CNS = system: U251 CNS
UACC-257 melanoma = system: UACC-257 melanoma
UACC-62 melanoma = system: UACC-62 melanoma
UO-31 renal = system: UO-31 renal

Cc1cccc(C[C@H](NC(=O)Nc2ccc(Cl)cc2F)C(=O)N[C@@H]2C(=O)N3C[C@H](O)C[C@H]3C(=O)N3CCCC[C@H]3C(=O)N[C@@H](C)C(=O)N3C[C@H](C)C[C@H]3C(=O)O[C@H]2C)c1 ({NH(4-Cl-2-F-phenyl)-CO}-[Phe(3-Me)][aThr][Hyp][Pip]A[Pro(4R-Me)]; ester 2-C)
GI50 (786-0 renal): 1280 nM | TGI (786-0 renal): 7690 nM | GI50 (A498 renal): 327 nM | TGI (A498 renal): 2150 nM | GI50 (A549 NSCLC): 505 nM | TGI (A549 NSCLC): 12100 nM | GI50 (ACHN renal): 2110 nM | TGI (ACHN renal): 6160 nM | GI50 (BT-549 breast): 540 nM | TGI (BT-549 breast): 2740 nM | GI50 (CAKI-1 renal): 807 nM | TGI (CAKI-1 renal): 5580 nM | GI50 (CCRF-CEM leukemia): 520 nM | TGI (CCRF-CEM leukemia): 12000 nM | GI50 (COLO 205 colon): 344 nM | TGI (COLO 205 colon): 1360 nM | GI50 (DU-145 prostate): 511 nM | TGI (DU-145 prostate): 9840 nM | GI50 (EKVX NSCLC): 860 nM | TGI (EKVX NSCLC): 8040 nM | GI50 (HCC-2998 colon): 468 nM | TGI (HCC-2998 colon): 1770 nM | GI50 (HCT-116 colon): 404 nM | TGI (HCT-116 colon): 1660 nM | GI50 (HCT-15 colon): 1930 nM | TGI (HCT-15 colon): 4340 nM | GI50 (HL-60(TB) leukemia): 322 nM | TGI (HL-60(TB) leukemia): 1790 nM | GI50 (HOP-62 NSCLC): 484 nM | TGI (HOP-62 NSCLC): 3620 nM | GI50 (HOP-92 NSCLC): 525 nM | TGI (HOP-92 NSCLC): 3140 nM | GI50 (HS 578T breast): 455 nM | TGI (HS 578T breast): 3580 nM | GI50 (HT29 colon): 547 nM | TGI (HT29 colon): 3060 nM | GI50 (IGROV1 ovarian): 919 nM | TGI (IGROV1 ovarian): 2980 nM | GI50 (K-562 leukemia): 221 nM | TGI (K-562 leukemia): > 33700 nM | GI50 (KM12 colon): 788 nM | TGI (KM12 colon): 2490 nM | GI50 (LOX IMVI melanoma): 670 nM | TGI (LOX IMVI melanoma): 2160 nM | GI50 (M14 melanoma): 487 nM | TGI (M14 melanoma): 2190 nM | GI50 (MALME-3M melanoma): 553 nM | TGI (MALME-3M melanoma): 2190 nM | GI50 (MCF7 breast): 391 nM | TGI (MCF7 breast): 3000 nM | GI50 (MDA-MB-231 breast): 429 nM | TGI (MDA-MB-231 breast): 1710 nM | GI50 (MDA-MB-435): 438 nM | TGI (MDA-MB-435): 1740 nM | GI50 (MOLT-4 leukemia): 876 nM | TGI (MOLT-4 leukemia): 6280 nM | GI50 (NCI-H226 lung): 511 nM | TGI (NCI-H226 lung): 2630 nM | GI50 (NCI-H23 lung): 551 nM | TGI (NCI-H23 lung): 3720 nM | GI50 (NCI-H460 lung): 398 nM | TGI (NCI-H460 lung): 2460 nM | GI50 (NCI-H522 lung): 464 nM | TGI (NCI-H522 lung): 2600 nM | GI50 (NCI/ADR-RES ovarian): 11000 nM | TGI (NCI/ADR-RES ovarian): 33400 nM | GI50 (OVCAR-3 ovarian): 438 nM | TGI (OVCAR-3 ovarian): 1750 nM | GI50 (OVCAR-4 ovarian): 324 nM | TGI (OVCAR-4 ovarian): 2680 nM | GI50 (OVCAR-5 ovarian): 554 nM | TGI (OVCAR-5 ovarian): 2360 nM | GI50 (OVCAR-8 ovarian): 435 nM | TGI (OVCAR-8 ovarian): 15600 nM | GI50 (PC-3 prostate): 365 nM | TGI (PC-3 prostate): 1850 nM | GI50 (RPMI-8226 leukemia): 128 nM | TGI (RPMI-8226 leukemia): 1630 nM | GI50 (RXF 393 renal): 1310 nM | TGI (RXF 393 renal): 2960 nM | GI50 (SF-268 CNS): 499 nM | TGI (SF-268 CNS): 4020 nM | GI50 (SF-295 CNS): 416 nM | TGI (SF-295 CNS): 1800 nM | GI50 (SF-539 CNS): 733 nM | TGI (SF-539 CNS): 2290 nM | GI50 (SK-MEL-2 melanoma): 635 nM | TGI (SK-MEL-2 melanoma): 2370 nM | GI50 (SK-MEL-28 melanoma): 728 nM | TGI (SK-MEL-28 melanoma): 2080 nM | GI50 (SK-MEL-5 melanoma): 492 nM | TGI (SK-MEL-5 melanoma): 1700 nM | GI50 (SK-OV-3 ovarian): 501 nM | TGI (SK-OV-3 ovarian): 3520 nM | GI50 (SN12C renal): 393 nM | TGI (SN12C renal): 4600 nM | GI50 (SNB-19 CNS): 381 nM | TGI (SNB-19 CNS): 11300 nM | GI50 (SNB-75 CNS): 544 nM | TGI (SNB-75 CNS): 4800 nM | GI50 (SR leukemia): 546 nM | TGI (SR leukemia): 3550 nM | GI50 (SW-620 colon): 595 nM | TGI (SW-620 colon): 10900 nM | GI50 (T-47D breast): 415 nM | TGI (T-47D breast): 4840 nM | GI50 (TK-10 renal): 1780 nM | TGI (TK-10 renal): 10100 nM | GI50 (U251 CNS): 440 nM | TGI (U251 CNS): 7770 nM | GI50 (UACC-257 melanoma): 388 nM | TGI (UACC-257 melanoma): 2200 nM | GI50 (UACC-62 melanoma): 505 nM | TGI (UACC-62 melanoma): 1960 nM | GI50 (UO-31 renal): 2140 nM | TGI (UO-31 renal): 7680 nM
